# Results published in US8119364B2, “Methods for generating analogs of coenzyme A” (The Regents of the University of California, priority 2005, dated 2012).
# “Also recorded” adds a separate entry of the source. Where two headings read alike, the source gives them in different places.
# Legend:
# E. coli PanK (CoAA) [1] = target: T1, E. coli PanK (CoAA) (Escherichia coli, UniProt P0A6I3); experiment: Kinetic assay of pantetheine analogs as substrates of PanK; format: biochemical; details: for Km / kcat: compound as substrate of E. coli PanK; for Km, fold lower: compared with pantothenate
# T1 sequence (P0A6I3 1-316): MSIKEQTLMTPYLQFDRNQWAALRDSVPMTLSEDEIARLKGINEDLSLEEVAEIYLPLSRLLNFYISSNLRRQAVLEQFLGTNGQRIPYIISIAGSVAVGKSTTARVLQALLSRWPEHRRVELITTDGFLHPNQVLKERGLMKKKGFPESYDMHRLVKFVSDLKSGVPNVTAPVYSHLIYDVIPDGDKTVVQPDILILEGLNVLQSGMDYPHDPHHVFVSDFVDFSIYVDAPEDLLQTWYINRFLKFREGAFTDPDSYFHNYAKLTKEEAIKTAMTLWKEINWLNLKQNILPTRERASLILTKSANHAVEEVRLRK
# Description: As mentioned earlier, phosphorylation of the primary hydroxyl group of pantothenate by the first protein in the CoA biosynthesis pathway, PanK, is believed to be the rate limiting step in vivo. Jackowski and Rock, J. Bacteria 148:926, 1981. Due to its role as the gatekeeper of CoA biosynthesis, each of the new analogs was assayed for kinetic activity with PanK (Table 2).
# The assay was performed as previously described using the prototypical bacterial PanK, CoAA from E. coli. Kumar and Aldrich, Org. Lett. 5:613, 2003. The reaction of CoAA with the natural substrate pantothenate gave values that conformed to those previously reported in the literature. Worthington and Burkart, Org. Biomol. Chem. 4:44, 2005; Strauss and Begley, J. Biol. Chem. 277:48205, 2002. […] Conversely, compounds with PEG linkers between the pantoic acid moiety and the bioorthogonal terminus were poor substrates for CoAA.
# E. coli PanK (CoAA) [2] = target: T1, E. coli PanK (CoAA); details: natural pantetheine, from reference 14, cited from earlier work
# [3] = test system: CoA biosynthesis enzymes (CoAA/D/E), PPTase (Sfp) and carrier protein (E. coli ACP); details: native PAGE
# Description: Virga et al., Bioorg. Med. Chem. 14:1007, 2006. […] Clarke et al., J. Am. Chem. Soc. 127:11234, 2005.
# (§1) (a) Analogs were assayed for gel shift after reaction with CoA biosynthesis enzymes (CoAA/D/E), PPTase (Sfp) and carrier protein (E. coli ACP). Conversion of apo-ACP to reporter modified crypto-ACP causes a change in the mobility of the protein on native PAGE. (b) In vitro modification of the carrier protein VibB by reaction with fluorescent pantetheine analogs, CoA biosynthesis enzymes (CoAA/D/E) and Sfp. (c) In vivo modification of carrier protein by incubation of fluorescent pantetheine analogs with E. coli overexpressing VibB and the PPTase Sfp. (d) In vitro modification of VibB by reaction with bioorthogonal pantetheine analogs, CoA biosynthesis enzymes (CoAA/D/E) and Sfp. Labeled carrier protein is visualized by chemoselective ligation to the appropriate biotin reporter (9-11) followed by SDS-PAGE, blotting onto nitrocellulose, and incubation with streptavidin-linked alkaline phosphatase. (e) In vivo modification of carrier protein by incubation of bioorthogonal pantetheine analogs with E. coli overexpressing VibB and the PPTase Sfp. Visualization as in (d).
# [4] = test system: CoA biosynthetic enzymes (CoAA/D/E), PPTase Sfp and apo-ACP; details: MALDI-MS, in vitro
# From the text: To confirm the results from this assay, the reaction mixtures were subjected to matrix-assisted laser desorption/ionization mass spectrometry (MALDI-MS). […] Compound 13 was reacted with the CoAA biosynthesis enzymes, ACP, and Sfp as described above and the reaction mix analyzed by MALDI without further purification.
# Apo-ACP (a) is reacted with pantetheine analogs, CoA biosynthetic enzymes (CoAA/D/E) and the PPTase Sfp.
# CoAA = CoAA (Escherichia coli, UniProt P0A6I3); details: pantothenate as substrate
# From the text: To isolate and investigate the effect of H-bond accepting heteroatoms in the linker region, pantetheine analogs 15 and 16 were synthesized. […] Virga et al., Bioorg. Med. Chem. 14:1007, 2006. […] To test if these compounds were acting as inhibitors of CoAA, a competitive kinetic assay was set up using pantotenate as the substrate. […] Ivey et al., J. Biol. Chem. 279:35622, 2004. Investigation of these compounds as potential inhibitor scaffolds is ongoing.
# [5] = test system: E. coli overexpressing the carrier protein VibB and the PPTase Sfp; experiment: In vivo uptake: carrier protein labeling in E. coli; format: cell-based; details: 1 mM compound, 4 hours of growth, SDS-PAGE fluorescence or western blot
# Description: as §1
# (§2) The library of pantetheine analogs was tested for integration into the E. coli CoA pathway using an in vivo assay. Clarke et al., J. Am. Chem. Soc. 127:11234, 2005. E. coli overexpressing the carrier protein VibB and the PPTase Sfp were incubated with 1 mM of each compound in 1 ml of culture. After 4 hours of growth cells were pelleted, washed, and lysed. Lysate from these cultures was run on SDS-PAGE gels and detection carried out as described for the in vitro studies. […] To verify the results of the gels and blots, samples of crude lysate were assayed by MALDI-MS (FIG. 11). For MALDI-MS analysis doubly transformed E. coli containing plasmids for the carrier protein Fren and the PPTase Sfp were used.
# [6] = test system: E. coli containing plasmids for the carrier protein Fren and the PPTase Sfp; experiment: MALDI-MS of crude lysate after in vivo labeling; format: cell-based
# Description: as §2
# [7] = compound 3 (β-Ala linkage) versus compound 1
SMILES,Km compared with natural substrate pantothenate (fold higher) (E. coli PanK (CoAA) [1]),substrate suitability for CoAA/PanK (in words) (E. coli PanK (CoAA) [1]),Km (E. coli PanK (CoAA) [1]) [µM],kcat (E. coli PanK (CoAA) [1]) [s⁻¹],modification of VibB in vivo (detectability) [5],turnover compared with the natural substrate (in words) (E. coli PanK (CoAA) [1]),other results
CC(C)(CO)[C@@H](O)C(=O)NCCOCCOCCNC(=O)CCN=[N+]=[N-] [Compound 7],two-fold higher,viable substrates,53.8 ± 11.2,0.103 ± 0.00733,–,–,–
CC(C)(CO)[C@@H](O)C(=O)NCCC(=O)NCCS [Pantetheine],–,–,–,–,–,–,Km (E. coli PanK (CoAA) [2]): 91 ± 10 µM; kcat (E. coli PanK (CoAA) [2]): 0.32 ± 0.0017 s⁻¹; kcat (E. coli PanK (CoAA) [2]; listed as pantetheine): 0.525 s⁻¹
CC(C)(CO)[C@@H](O)C(=O)NCCOCCOCCOCCOCCOCCOCCOCCOCCOCCOCCN=[N+]=[N-] [Compound 8],–,such poor substrates that kinetic data could not be generated,–,–,–,–,change in mobility / conversion of apo-ACP to crypto-ACP [3]: multiple bands on the gel that suggest apo-protein remains; conversion to CoA analog and transfer onto carrier protein ACP [4]: significantly incomplete
CN(C)c1ccc2c(CC(=O)NCCOCCOCCOCCOCCOCCOCCOCCOCCOCCOCCNC(=O)[C@H](O)C(C)(C)CO)cc(=O)oc2c1 [Compound 18],–,such poor substrates that kinetic data could not be generated,–,–,–,–,change in mobility / conversion of apo-ACP to crypto-ACP [3]: multiple bands on the gel that suggest apo-protein remains
CN(C)c1ccc2c(CC(=O)NCCCOCCNC(=O)[C@H](O)C(C)(C)CO)cc(=O)oc2c1 [Compound 15],–,extremely poor substrates; also recorded: losing almost all substrate activity,0.76 ± 0.32,0.0227 ± 0.00083,–,–,"Km, fold lower (E. coli PanK (CoAA) [1]): 100 fold; mode of inhibition of CoAA (CoAA): non-competitive inhibitor"
CC(C)(CO)[C@@H](O)C(=O)NCCC(=O)NCCN=[N+]=[N-] [Compound 3],–,kcat and Km values closely approaching those of the natural substrate,43.5 ± 1.99,0.46695 ± 0.007,detectable modification of VibB in vivo; also recorded: biodetectible in E. coli,–,increase in Km (E. coli PanK (CoAA) [1]; [7]): 10 fold; increase in catalytic efficiency (E. coli PanK (CoAA) [1]; [7]): ~20 fold
CC(C)(CO)[C@@H](O)C(=O)NCCC(=O)NCCNC(=O)CCN=[N+]=[N-] [Compound 5],two fold higher,processed particularly efficiently by PanK,71.9 ± 6.98,0.6818 ± 0.0187,detectable modification of VibB in vivo; also recorded: biodetectible in E. coli,exceeding,–
CN(C)c1ccc2c(CC(=O)NCCOCCCNC(=O)[C@H](O)C(C)(C)CO)cc(=O)oc2c1 [Compound 16],–,extremely poor substrates; also recorded: losing almost all substrate activity,0.14 ± 0.18,0.0167 ± 0.0005,–,–,"Km, fold lower (E. coli PanK (CoAA) [1]): 100 fold"
CC(=O)CCC(=O)NCCNC(=O)CCNC(=O)[C@H](O)C(C)(C)CO [Compound 4],two fold higher,–,62.6 ± 3.89,0.344 ± 0.0075,"detectable, but showed much weaker labeling; also recorded: biodetectible in E. coli",near equal,–
CC(=O)CCC(=O)NCCOCCOCCNC(=O)[C@H](O)C(C)(C)CO [Compound 6],–,markedly decreased kinetic activity,0.196 ± 0.09,0.0267 ± 0.001,–,–,–
C#CCNC(=O)CCNC(=O)[C@H](O)C(C)(C)CO [Compound 2],–,kcat and Km values closely approaching those of the natural substrate,32.9 ± 2.54,0.5242 ± 0.0125,detectable modification of VibB in vivo; also recorded: biodetectible in E. coli,–,–
CN(C)c1ccc2c(CC(=O)NCCNC(=O)[C@H](O)C(C)(C)CO)cc(=O)oc2c1 [Compound 12],–,lower turnover and catalytic efficiency than analogs containing the natural β-Ala/pantoic acid linkage; also recorded: good binding but slow turnover,37.2 ± 5.82,0.1927 ± 0.0095,detectable modification of VibB in vivo; also recorded: biodetectible in E. coli,–,–
CN(C)c1cccc2c(S(=O)(=O)NCCNC(=O)CCNC(=O)[C@H](O)C(C)(C)CO)cccc12 [Compound 14],the same as,processed particularly efficiently by PanK,27.3 ± 3.28,0.2877 ± 0.0103,–,near equal,–
CC(C)(CO)[C@@H](O)C(=O)NCCN=[N+]=[N-] [Compound 1],20 fold,–,692 ± 89.1,0.3722 ± 0.0257,–,turnover within the range of the natural substrate,–
CN(C)c1ccc2c(CC(=O)NCCCCCCNC(=O)CCNC(=O)[C@H](O)C(C)(C)CO)cc(=O)oc2c1 [Compound 13],the same as,processed particularly efficiently by PanK,28.4 ± 6.92,0.3193 ± 0.0235,detectable modification of VibB in vivo; also recorded: biodetectible in E. coli,near equal,"in vivo uptake and attachment onto Fren [6]: taken up by the cell, processed into a CoA analog and attached onto Fren; conversion to CoA analog and transfer onto carrier protein ACP [4]: converted to CoA analogs and modify ACP"
CN(C)c1ccc2c(CC(=O)NCCOCCOCCNC(=O)[C@H](O)C(C)(C)CO)cc(=O)oc2c1 [Compound 17],two-fold higher,viable substrates,51.2 ± 6.42,0.1677 ± 0.00717,–,–,conversion to CoA analog and transfer onto carrier protein ACP [4]: converted to CoA analogs and modify ACP
